Experimental data from ChEMBL document CHEMBL2086220, “Selective cytotoxicity and apoptosis induction in glioma cell lines by 5-oxygenated-6,7-methylenedioxycoumarins from Pterocaulon species” (Eur J Med Chem, 2012).
The source made the active and inactive calls. No cut-off for these calls is given here.

How the values were obtained:
[1] = Cytotoxicity against human U138MG cells incubated for 48 hrs by MTT assay; format: functional, cell-based, U138-MG
[2] = system: C6; test: Cytotoxicity against rat C6 cells incubated for 48 hrs by MTT assay; format: functional, cell-based
[3] = system: C6; test: Induction of apoptotic cell death in rat C6 cells at 25 uM incubated for 24 hrs by Annexin V/PI staining based flow cytometry; format: functional
[4] = system: C6; test: Induction of apoptotic cell death in rat C6 cells at 50 uM incubated for 24 hrs by Annexin V/PI staining based flow cytometry; format: functional
[5] = system: Hippocampus; test: Toxicity in Wistar rat organotypic hippocampal cultures at 100 uM incubated for 48 hrs by propidium iodide incorporation assay; format: tissue-based
[6] = system: C6; test: Induction of early apoptotic cell death in rat C6 cells at 100 uM incubated for 24 hrs by Annexin V/PI staining based flow cytometry; format: functional
[7] = Homo sapiens, U138-MG, 48 h, read-out: IC50
[8] = Rattus norvegicus, C6, 48 h, read-out: IC50

| Structure (SMILES) | IC50 [1, 7] | IC50 [2, 8] | IC50 ([1]; u138-mg) | IC50 ([2]; c6) | also measured |
| --- | --- | --- | --- | --- | --- |
| Cn1nnc2c(C(N)=O)ncn2c1=O [TEMOZOLOMIDE] | 26 µM | 34 µM |  |  |  |
| COc1c2c(cc3oc(=O)ccc13)OCO2 | 31.6 µM | 34.6 µM |  |  | Activity [3]: inactive; Activity [4]: inactive; Activity [5]: Non-toxic; Activity [6]: Active |
| CC(C)=CCOc1c2c(cc3oc(=O)ccc13)OCO2 | 65.4 µM | 77.5 µM |  |  |  |
| CC(C)(O)C(O)COc1c2c(cc3oc(=O)ccc13)OCO2 (stereo not given) | 75.6 µM | 76.4 µM |  |  |  |
| O=c1ccc2ccc(O)cc2o1 [UMBELLIFERONE] |  |  | Not Active | Not Active |  |
| O=c1ccc2ccccc2o1 [COUMARIN] |  |  | Not Active | Not Active |  |
| O=c1ccc2cc(O[C@@H]3O[C@H](CO)[C@@H](O)[C@H](O)[C@H]3O)c(O)cc2o1 [ESCULIN] |  |  | Not Active | Not Active |  |
| O=c1ccc2cc(O)c(O)cc2o1 [ESCULETIN] |  |  | Not Active | Not Active |  |
